Data: patent US6946470B2, “Method of treating psychosis in a patient” (Medical and Pharmaceutical Industry Technology and …, priority 2002, dated 2005)

How the values were obtained:
[1] = biological target: T1, human dopamine D2L receptors (Homo sapiens, UniProt P14416); assay: Dopamine D2L receptor binding assay ([3H]Spiperone); conditions: 30 nM, CHO cell membranes
T1 construct: expressed in transfected cells
Protocol: Dopamine D2L Receptor Binding Assay
This assay measures binding of [^3H]Spiperone to human dopamine D2L receptors. CHO cells stably transfected with a plasmid encoding the human dopamine D2L receptor were used to prepare membranes in modified Tris-HCl pH 7.4 buffer. A 20 μg aliquot of membrane, in the presence or absence of a test compound, was incubated with 0.16 nM [^3H]Spiperone for 120 minutes at 25° C. Non-specific binding was estimated in the presence of 10 μM hapoperidol. Membranes were filtered and washed three times and the filters were counted to determine [^3H]Spiperone specifically bound. [References: Grandy D K, Marchionni M A, Makam H, Stofko R E, Alfano M, Frothingham L, Fischer J B, Burker-Howie K J, Bunzow J R, Server A C. Proc. Natl. Acad. Sci. (USA) 86: 9762-9766, 1989; Bunzow J R, Van Tol H H, Grandy D K, Albert P, Salon J, Christie M, Machida C A, Neve K A, Civelli O. Nature 336: 783-787, 1988; Hayes G, Biden T J, Selbie L A, Shine J. Mol. Endocrin. 6: 920-926, 1992]

[2] = biological target: T2, serotonin 5-HT2 receptors (Rattus norvegicus, UniProt P14842); assay: Serotonin 5-HT2 receptor binding assay ([3H]Ketanserin); conditions: 30 nM, rat whole brain membranes
T2 construct: from tissue; host or cells: rat whole brain (except cerebellum) membranes
T2 sequence (P14842 whole entry): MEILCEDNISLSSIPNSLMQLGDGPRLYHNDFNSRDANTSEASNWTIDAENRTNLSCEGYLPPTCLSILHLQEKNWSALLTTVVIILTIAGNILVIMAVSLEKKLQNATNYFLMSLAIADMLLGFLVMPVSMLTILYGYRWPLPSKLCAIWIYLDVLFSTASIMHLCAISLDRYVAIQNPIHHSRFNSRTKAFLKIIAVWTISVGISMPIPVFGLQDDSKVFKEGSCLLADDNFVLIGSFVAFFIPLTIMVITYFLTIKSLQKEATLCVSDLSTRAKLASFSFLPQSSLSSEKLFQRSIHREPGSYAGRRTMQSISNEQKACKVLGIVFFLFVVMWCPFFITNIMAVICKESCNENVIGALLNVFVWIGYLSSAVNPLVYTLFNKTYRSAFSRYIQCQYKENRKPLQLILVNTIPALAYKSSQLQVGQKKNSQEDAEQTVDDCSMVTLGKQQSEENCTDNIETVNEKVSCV
Protocol: Serotonin 5-HT2 Receptor Binding Assay
This assay measures binding of [^3H]Ketanserin to serotonin 5-HT2 receptors. Whole brain (except cerebellum) membranes of male Wistar derived rats weighing 175±25 g were prepared in Tris-HCl pH 7.7 buffer. A 10 mg aliquot of membrane was incubated with 0.5 nM [^3H]Ketanserin for 40 minutes at 25° C. Non-specific binding was estimated in the presence of 1 μM Ketanserin. Membranes were filtered and washed three times and the filters were counted to determine [^3H]Ketanserin specifically bound. [Reference: Leysen J E, Niemegeers C J, Van Nauten J M, Laduron D M. Mol. Pharmacol. 21: 301-314, 1982]

[3] = system: apomorphine-induced climbing behavior in mice; assay: Effects on apomorphine-induced climbing behavior; format: in vivo; conditions: for Inhibition % of apomorphine-induced climbing behavior: apomorphine 1 mg/kg SC 60 min after dosing; for Agonist activity (score): group score 0-6, 30 to 60 minutes post-dosing, 3 mice
Protocol: Climbing behavior was scored 0-2 for each animal from 30 to 60-minutes post-dosing: all four paws on floor=0, both forefeet holding the wall=1, all four paws on wall=2. Consequently, maximum possible group score was 2×3 mice=6. A score of 3 or more (≧3) during this 30 minute observation period denotes dopamine-agonist activity. Mice in which no significant dopamine agonist activity occurred were then used to determine antagonistic activity. […] [Reference: Psychopharmacology 50: 1-6, 1976] Percentage inhibition of test substance on apomorphine-induced climbing behavior is calculated as follows: [formula]

T1 sequence (P14416 whole entry): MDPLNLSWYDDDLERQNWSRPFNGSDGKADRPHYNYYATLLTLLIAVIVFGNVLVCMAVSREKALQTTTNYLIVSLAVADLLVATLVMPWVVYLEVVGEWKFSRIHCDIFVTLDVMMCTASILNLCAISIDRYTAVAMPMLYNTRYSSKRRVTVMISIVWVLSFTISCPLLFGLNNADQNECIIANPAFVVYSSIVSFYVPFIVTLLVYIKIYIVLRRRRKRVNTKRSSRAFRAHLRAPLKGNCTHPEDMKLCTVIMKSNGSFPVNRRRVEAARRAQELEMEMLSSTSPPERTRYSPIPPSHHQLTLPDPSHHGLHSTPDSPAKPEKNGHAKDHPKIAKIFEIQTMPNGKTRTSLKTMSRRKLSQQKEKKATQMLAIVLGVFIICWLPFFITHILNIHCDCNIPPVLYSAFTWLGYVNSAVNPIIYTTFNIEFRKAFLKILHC

SMILES	Inhibition % D2L [1]	Inhibition % 5-HT2 [2]	inhibition at 0.03 µM [1]	inhibition at 0.03 µM [2]	also measured
COc1ccc(N2CCN(CC3CN4C(=O)Nc5ccccc5C4=N3)CC2)cc1 (stereo not shown) [PDC-132, 2-[1-(4-methoxyphenyl)piperazinyl]methyl-2,3-dihydroimidazo[1,2-c]-quinazolin-5(6H)-one]	15%	5%			
O=C1Nc2ccccc2C2=NC(CN3CCN(Cc4ccc5c(c4)OCO5)CC3)CN12 (stereo not shown) [PDC-123, 2-[4-piperonyl-1-piperazinyl]methyl-2,3-dihydroimidazo[1,2-c]-quinazolin-5(6H)-one]			11%	4%	
O=C(c1ccc(F)cc1)C1CCN(CC2CN3C(=O)Nc4ccccc4C3=N2)CC1 (stereo not shown) [PDC-130, 2-[1-(4-p-fluorobenzoyl)piperidinyl]methyl-2,3-dihydroimidazo[1,2-c]-quinazolin-5(6H)-one]	16%	88%			Inhibition % of apomorphine-induced climbing behavior ([3]; PO 1 mg/kg): 0%; Agonist activity (score) ([3]; PO 1 mg/kg): 0; Inhibition % of apomorphine-induced climbing behavior ([3]; PO 3 mg/kg): 60%; Agonist activity (score) ([3]; PO 3 mg/kg): 0; Inhibition % of apomorphine-induced climbing behavior ([3]; PO 10 mg/kg): 100%; Agonist activity (score) ([3]; PO 10 mg/kg): 0; Inhibition % of apomorphine-induced climbing behavior ([3]; PO 30 mg/kg): 100%; Agonist activity (score) ([3]; PO 30 mg/kg): 0
O=C1Nc2ccccc2C2=NC(CC3CCC4(CCCCC4)NC3)CN12 (stereo not shown) [PDC-122, 3-{2,3-dihydroimidazo[1,2-c]quinazolin-5(6H)-one-2-yl}methyl-azaspiro-[5,5]undecane]			13%	2%	
O=C1Nc2ccccc2C2=NC(CN3CCN(Cc4ccccc4)CC3)CN12 (stereo not shown) [PDC-121, 2-[4-benzyl-1-piperazinyl]methyl-2,3-dihydroimidazo[1,2-c]quinazolin-5(6H)-one]			18%	21%	
O=C1Nc2ccccc2C2=NC(CNC3CCN(Cc4ccccc4)CC3)CN12 (stereo not shown) [PDC-126, 2-[1-benzylpiperidin-4-yl]aminomethyl-2,3-dihydroimidazo[1,2-c]-quinazolin-5(6H)-one]			29%	11%	
O=C1Nc2ccccc2C2=NC(CN3CCC(Cc4ccccc4)CC3)CN12 (stereo not shown) [PDC-124, 2-[4-Benzyl-1-piperidinyl]methyl-2,3-dihydroimidazo[1,2-c]quinazolin-5(6H)-one]			14%	62%	Inhibition % of apomorphine-induced climbing behavior ([3]; PO 30 mg/kg): 50%; Agonist activity (score) ([3]; PO 30 mg/kg): 0
O=C1Nc2ccccc2C2=NC(CN3CCN(Cc4ccc(F)cc4)CC3)CN12 (stereo not shown) [PDC-127, 2-[4-(4-fluorobenzyl)-1-piperazinyl]methyl-2,3-dihydroimidazo[1,2-c]quinazolin-5(6H)-one]			11%	20%	
O=C1Nc2ccccc2C2=NC(CN3CCN(C(c4ccccc4)c4ccc(Cl)cc4)CC3)CN12 (stereo not shown) [PDC-131, 2-[1-(4-chlorobenzhydryl)piperazinyl]methyl-2,3-dihydroimidazo[1,2-c]-quinazolin-5(6H)-one]	10%	47%			
